# Patent US20170190671A1, “BIS(ARYL)CATECHOL DERIVATIVES AS HERBICIDES” (E I DU PONT DE NEMOURS AND COMPANY, priority 2014, published 2017)
# Tests used:
# [1] = test system: Italian ryegrass (Lolium multiflorum); assay: Test C preemergence; type: in vivo; settings: Lolium multiflorum, pre-emergence, 336 h, scale 0 to 100, read-out: Plant response rating, Ryegrass, Italian
# Summary of the method: (§1)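 Greenhouse test, preemergence on seeded soil or postemergence on 1- to 4-leaf plants. Response is a visual 0-100 rating versus controls, taken 13-15 days after treatment.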
# [2] = test system: winter wheat (Triticum aestivum); assay: Test C preemergence; type: in vivo; settings: Triticum aestivum, pre-emergence, 336 h, scale 0 to 100, read-out: Plant response rating, Wheat
# Summary of the method: as §1
# [3] = test system: morningglory (Ipomoea coccinea); assay: Test C preemergence; type: in vivo; settings: Ipomoea, pre-emergence, 336 h, scale 0 to 100, read-out: Plant response rating, Morningglory
# Summary of the method: as §1
# [4] = test system: yellow nutsedge (Cyperus esculentus); assay: Test C preemergence; type: in vivo; settings: Cyperus, pre-emergence, 336 h, scale 0 to 100, read-out: Plant response rating, Nutsedge, Yellow
# Summary of the method: as §1
# [5] = test system: oilseed rape (Brassica napus); assay: Test C preemergence; type: in vivo; settings: Brassica napus, pre-emergence, scale 0 to 100, read-out: Plant response rating, Oilseed Rape
# Summary of the method: as §1
# [6] = test system: barnyardgrass (Echinochloa crus-galli); assay: Test C preemergence; type: in vivo; settings: Echinochloa crus-galli, pre-emergence, read-out: Plant response rating, Barnyardgrass
# Summary of the method: as §1
# [7] = test system: large (Lg) crabgrass (Digitaria sanguinalis); assay: Test C preemergence; type: in vivo; settings: Digitaria sanguinalis, pre-emergence, 336 h, scale 0 to 100, read-out: Plant response rating, Crabgrass, Large
# Summary of the method: as §1
# [8] = test system: velvetleaf (Abutilon theophrasti); assay: Test C preemergence; type: in vivo; settings: Abutilon theophrasti, pre-emergence, scale 0 to 100, read-out: Plant response rating, Velvetleaf
# Summary of the method: as §1
# [9] = test system: waterhemp (common waterhemp, Amaranthus rudis); assay: Test C preemergence; type: in vivo; settings: Amaranthus tuberculatus, pre-emergence, scale 0 to 100, read-out: Plant response rating, Waterhemp
# Summary of the method: as §1
# corn (Zea mays) [10] = assay: Test C preemergence; type: in vivo; settings: Zea mays, pre-emergence, 336 h, scale 0 to 100
# Summary of the method: as §1
# [11] = test system: lambsquarters (Chenopodium album); assay: Test C preemergence; type: in vivo; settings: Chenopodium album, pre-emergence, 336 h, scale 0 to 100, read-out: Plant response rating, Lambsquarters
# Summary of the method: as §1
# [12] = test system: johnsongrass (Sorghum halepense); assay: Test C preemergence; type: in vivo; settings: Sorghum halepense, pre-emergence, 336 h, scale 0 to 100, read-out: Plant response rating, Johnsongrass
# Summary of the method: as §1
# [13] = test system: pigweed (Amaranthus retroflexus); assay: Test C preemergence; type: in vivo; settings: Amaranthus retroflexus, pre-emergence, 336 h, scale 0 to 100, read-out: Plant response rating, Pigweed
# Summary of the method: as §1
# soybean (Glycine max) [14] = assay: Test C preemergence; type: in vivo; settings: Glycine max, pre-emergence, scale 0 to 100, read-out: Plant response rating, Soybean
# Summary of the method: as §1
# [15] = test system: blackgrass (Alopecurus myosuroides); assay: Test C preemergence; type: in vivo; settings: Alopecurus myosuroides, pre-emergence, 336 h, scale 0 to 100, read-out: Plant response rating, Blackgrass
# Summary of the method: as §1
# [16] = test system: giant foxtail (Setaria faberii); assay: Test C preemergence; type: in vivo; settings: Setaria faberi, pre-emergence, 336 h, scale 0 to 100, read-out: Plant response rating, Foxtail, Giant
# Summary of the method: as §1
# [17] = test system: waterhemp (common waterhemp, Amaranthus rudis); assay: Test C postemergence; type: in vivo; settings: Amaranthus tuberculatus, post-emergence, Postemergence, scale 0 to 100, read-out: Plant response rating, Waterhemp
# Summary of the method: as §1
# corn (Zea mays) [18] = assay: Test C postemergence; type: in vivo; settings: Zea mays, post-emergence, 336 h, Postemergence, scale 0 to 100
# Summary of the method: as §1
# [19] = test system: lambsquarters (Chenopodium album); assay: Test C postemergence; type: in vivo; settings: Chenopodium album, post-emergence, 336 h, Postemergence, scale 0 to 100, read-out: Plant response rating, Lambsquarters
# Summary of the method: as §1
# soybean (Glycine max) [20] = assay: Test C postemergence; type: in vivo; settings: Glycine max, post-emergence, Postemergence, scale 0 to 100, read-out: Plant response rating, Soybean
# Summary of the method: as §1
# [21] = test system: ragweed (common ragweed, Ambrosia elatior); assay: Test C postemergence; type: in vivo; settings: Ambrosia artemisiifolia, post-emergence, 336 h, Postemergence, scale 0 to 100, read-out: Plant response rating, Ragweed
# Summary of the method: as §1
# [22] = test system: galium (catchweed bedstraw, Galium aparine); assay: Test C postemergence; type: in vivo; settings: Galium, post-emergence, 336 h, Postemergence, scale 0 to 100, read-out: Plant response rating, Galium
# Summary of the method: as §1
smiles,measurement,setting,value
"N#Cc1cccc(Oc2ncc(Cl)cn2)c1Oc1ncc(C(F)(F)F)cn1 [Compound 38, 3-[(5-chloro-2-pyrimidinyl)oxy]-2-[[5-(trifluoromethyl)-2-pyrimidinyl]oxy]-benzonitrile]",melting point,,101 to 103 °C
same,pest or weed control at 31 g/ha,"[1]; 31 g ai/ha, preemergence",10%
same,pest or weed control at 62 g/ha,"[1]; 62 g ai/ha, preemergence",60%
same,pest or weed control at 125 g/ha,"[1]; 125 g ai/ha, preemergence",90%
same,pest or weed control at 16 g/ha,"[1]; Preemergence, 16 g ai/ha",0%
same,plant injury at 31 g/ha,"[2]; 31 g ai/ha, preemergence",0%
same,plant injury at 62 g/ha,"[2]; 62 g ai/ha, preemergence",15%
same,plant injury at 125 g/ha,"[2]; 125 g ai/ha, preemergence",35%
same,plant injury at 16 g/ha,"[2]; Preemergence, 16 g ai/ha",0%
same,pest or weed control at 31 g/ha,"[3]; 31 g ai/ha, preemergence",80%
same,pest or weed control at 62 g/ha,"[3]; 62 g ai/ha, preemergence",95%
same,pest or weed control at 125 g/ha,"[3]; 125 g ai/ha, preemergence",100%
same,pest or weed control at 16 g/ha,"[3]; Preemergence, 16 g ai/ha",40%
same,pest or weed control at 31 g/ha,"[4]; 31 g ai/ha, preemergence",20%
same,pest or weed control at 62 g/ha,"[4]; 62 g ai/ha, preemergence",70%
same,pest or weed control at 125 g/ha,"[4]; 125 g ai/ha, preemergence",85%
same,pest or weed control at 16 g/ha,"[4]; Preemergence, 16 g ai/ha",0%
same,plant injury at 31 g/ha,"[5]; 31 g ai/ha, preemergence",100%
same,plant injury at 62 g/ha,"[5]; 62 g ai/ha, preemergence",100%
same,plant injury at 125 g/ha,"[5]; 125 g ai/ha, preemergence",100%
same,plant injury at 16 g/ha,"[5]; Preemergence, 16 g ai/ha",90%
same,pest or weed control at 31 g/ha,"[6]; 31 g ai/ha, preemergence, scale 0 to 100",85%
same,pest or weed control at 62 g/ha,"[6]; 62 g ai/ha, preemergence, scale 0 to 100",100%
same,pest or weed control at 125 g/ha,"[6]; 125 g ai/ha, preemergence, scale 0 to 100",100%
same,pest or weed control at 16 g/ha,"[6]; Preemergence, 16 g ai/ha, scale 0 to 100 (0 no effect, 100 complete control)",50%
same,pest or weed control at 31 g/ha,"[7]; 31 g ai/ha, preemergence",100%
same,pest or weed control at 62 g/ha,"[7]; 62 g ai/ha, preemergence",100%
same,pest or weed control at 125 g/ha,"[7]; 125 g ai/ha, preemergence",100%
same,pest or weed control at 16 g/ha,"[7]; Preemergence, 16 g ai/ha",100%
same,pest or weed control at 31 g/ha,"[8]; 31 g ai/ha, preemergence",90%
same,pest or weed control at 62 g/ha,"[8]; 62 g ai/ha, preemergence",98%
same,pest or weed control at 125 g/ha,"[8]; 125 g ai/ha, preemergence",100%
same,pest or weed control at 16 g/ha,"[8]; Preemergence, 16 g ai/ha",45%
same,pest or weed control at 31 g/ha,"[9]; 31 g ai/ha, preemergence",100%
same,pest or weed control at 62 g/ha,"[9]; 62 g ai/ha, preemergence",100%
same,pest or weed control at 125 g/ha,"[9]; 125 g ai/ha, preemergence",100%
same,pest or weed control at 16 g/ha,"[9]; Preemergence, 16 g ai/ha",100%
same,"Corn plant response rating (crop injury, 0 = no effect, 100 = complete kill) at 31 g/ha","corn (Zea mays) [10]; 31 g ai/ha, preemergence",30%
same,"Corn plant response rating (crop injury, 0 = no effect, 100 = complete kill) at 62 g/ha","corn (Zea mays) [10]; 62 g ai/ha, preemergence",45%
same,"Corn plant response rating (crop injury, 0 = no effect, 100 = complete kill) at 125 g/ha","corn (Zea mays) [10]; 125 g ai/ha, preemergence",65%
same,"Corn plant response rating (crop injury, 0 = no effect, 100 = complete kill) at 16 g/ha","corn (Zea mays) [10]; Preemergence, 16 g ai/ha",10%
same,pest or weed control at 31 g/ha,"[11]; 31 g ai/ha, preemergence",90%
same,pest or weed control at 62 g/ha,"[11]; 62 g ai/ha, preemergence",95%
same,pest or weed control at 125 g/ha,"[11]; 125 g ai/ha, preemergence",98%
same,pest or weed control at 16 g/ha,"[11]; Preemergence, 16 g ai/ha",85%
same,pest or weed control at 31 g/ha,"[12]; 31 g ai/ha, preemergence",85%
same,pest or weed control at 62 g/ha,"[12]; 62 g ai/ha, preemergence",85%
same,pest or weed control at 125 g/ha,"[12]; 125 g ai/ha, preemergence",100%
same,pest or weed control at 16 g/ha,"[12]; Preemergence, 16 g ai/ha",45%
same,pest or weed control at 31 g/ha,"[13]; 31 g ai/ha, preemergence",100%
same,pest or weed control at 62 g/ha,"[13]; 62 g ai/ha, preemergence",100%
same,pest or weed control at 125 g/ha,"[13]; 125 g ai/ha, preemergence",100%
same,pest or weed control at 16 g/ha,"[13]; Preemergence, 16 g ai/ha",100%
same,plant injury at 31 g/ha,"soybean (Glycine max) [14]; 31 g ai/ha, preemergence",55%
same,plant injury at 62 g/ha,"soybean (Glycine max) [14]; 62 g ai/ha, preemergence",60%
same,plant injury at 125 g/ha,"soybean (Glycine max) [14]; 125 g ai/ha, preemergence",90%
same,plant injury at 16 g/ha,"soybean (Glycine max) [14]; Preemergence, 16 g ai/ha",20%
same,pest or weed control at 31 g/ha,"[15]; 31 g ai/ha, preemergence",35%
same,pest or weed control at 62 g/ha,"[15]; 62 g ai/ha, preemergence",50%
same,pest or weed control at 125 g/ha,"[15]; 125 g ai/ha, preemergence",90%
same,pest or weed control at 16 g/ha,"[15]; Preemergence, 16 g ai/ha",0%
same,pest or weed control at 31 g/ha,"[16]; 31 g ai/ha, preemergence",95%
same,pest or weed control at 62 g/ha,"[16]; 62 g ai/ha, preemergence",100%
same,pest or weed control at 125 g/ha,"[16]; 125 g ai/ha, preemergence",100%
same,pest or weed control at 16 g/ha,"[16]; Preemergence, 16 g ai/ha",85%
same,pest or weed control at 31 g/ha,[17]; 31 g ai/ha,75%
same,pest or weed control at 62 g/ha,[17]; 62 g ai/ha,85%
same,pest or weed control at 125 g/ha,[17]; 125 g ai/ha,95%
same,"Corn plant response rating (crop injury, 0 = no effect, 100 = complete kill) at 16 g/ha",corn (Zea mays) [18]; 16 g ai/ha,10%
same,"Corn plant response rating (crop injury, 0 = no effect, 100 = complete kill) at 31 g/ha",corn (Zea mays) [18]; 31 g ai/ha,20%
same,"Corn plant response rating (crop injury, 0 = no effect, 100 = complete kill) at 62 g/ha",corn (Zea mays) [18]; 62 g ai/ha,15%
same,"Corn plant response rating (crop injury, 0 = no effect, 100 = complete kill) at 125 g/ha",corn (Zea mays) [18]; 125 g ai/ha,15%
same,pest or weed control at 16 g/ha,[19]; 16 g ai/ha,65%
same,pest or weed control at 31 g/ha,[19]; 31 g ai/ha,70%
same,pest or weed control at 62 g/ha,[19]; 62 g ai/ha,80%
same,pest or weed control at 125 g/ha,[19]; 125 g ai/ha,90%
same,plant injury at 31 g/ha,soybean (Glycine max) [20]; 31 g ai/ha,85%
same,plant injury at 62 g/ha,soybean (Glycine max) [20]; 62 g ai/ha,50%
same,plant injury at 125 g/ha,soybean (Glycine max) [20]; 125 g ai/ha,80%
same,pest or weed control at 31 g/ha,[21]; 31 g ai/ha,55%
same,pest or weed control at 62 g/ha,[21]; 62 g ai/ha,70%
same,pest or weed control at 125 g/ha,[21]; 125 g ai/ha,50%
same,pest or weed control at 16 g/ha,[22]; 16 g ai/ha,70%
same,pest or weed control at 31 g/ha,[22]; 31 g ai/ha,85%
same,pest or weed control at 62 g/ha,[22]; 62 g ai/ha,90%
same,pest or weed control at 125 g/ha,[22]; 125 g ai/ha,90%
